The values below are quoted from earlier work in patent US7157444B2, “Aminosalicylate derivatives for treatment of inflammatory bowel disease” (priority 2002, dated 2007).

Structures are written as SMILES.

The conditions of the data set: oral, 40 mL of a suspension of 1 g of ASA in water, fasted healthy subjects.

For the molecule `Nc1ccc(O)c(C(=O)O)c1` [ASA, 5-aminosalicylic acid], the maximum plasma concentration was 14.7 µg/mL and the “time of maximum plasma concentration post-dose” value is listed as “Within an hour post-dose”.
Consider `CC(=O)Nc1ccc(O)c(C(=O)O)c1` [N-acetyl-ASA], for which the maximum plasma concentration was 11.4 µg/mL and the “time of maximum plasma concentration post-dose” value is recorded as “Within an hour post-dose”.
